*1 amine or outer side, *2 acyl side, *3 side chain or, on linkers, in order; H or OH if unused. Where a SMILES comes first, the peptide text is derived from it. Bridges are numbered along the chain shown (N, C = ends). The star is where a group is joined. C20 diacid = O=C(O)CCCCCCCCCCCCCCCCCCC(=O)*; γGlu = O=C(O)[C@H](CCC(=O)[*:2])N[*:1]
Columns and labels:
food intake = assay: Pharmacological Assay (I) - efficacy testing on appetite, ad libitum fed rat model; type: in vivo, Sprague Dawley (SD) rats; details: 30 nmol/kg vs vehicle, ad libitum fed rats, n=5-7, 0-48 hours
From the text: Assays Pharmacological Assay (I)—Experimental Protocol for Efficacy Testing on Appetite with an Amylin Derivative, Using an Ad Libitum Fed Rat Model. Sprague Dawley (SD) rats from Taconic Europe, Denmark are used for the experiments. The rats have a body weight 200-250 g at the start of experiment. The rats arrive at least 10-14 days before start of experiment to allow acclimatization to experimental settings. During this period the animals are handled at least 2 times. After arrival rats are housed individually for one week in a reversed light/dark phase (meaning that lights are off during daytime and on during nighttime) for two weeks. Since rats are normally active and eat their major part of their daily food intake during the dark period, rats are dosed in the morning right before lights are turned off. This set-up results in the lowest data variation and highest test sensitivity. The experiment is conducted in the rats' home cages and rats have free access to food and water throughout the acclimatization period and the experiment period. Each dose of derivative is tested in a group of 5-8 rats. A vehicle group of 6-8 rats is included in each set of testing. Rats are dosed once according to body weight with a 0.01-3 mg/kg solution administered intraperitoneally (ip), orally (po) or subcutaneously (sc). The time of dosing is recorded for each group. After dosing, the rats are returned to their home cages, where they then have access to food and water. The food consumption is recorded individually continuously by on-line registration or manually every hour for 7 hours, and then after 24 h and sometimes 48 h. At the end of the experimental session, the animals are euthanized. The individual data are recorded in Microsoft excel sheets. Outliers are excluded after applying the Grubbs statistical evaluation test for outliers, and the result is presented graphically using the GraphPad Prism program.

[1] = Assay (V) PK - determination of T½ in mini-pig; type: in vivo; details: minipig, sc; terminal plasma half-life, subcutaneous, approx 2 nmol/kg, male Göttingen mini-pigs
Method in brief: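 Male Göttingen mini-pigs (5–12 months, 7–35 kg) got a single s.c. neck injection of approx 2 nmol/kg; plasma sampled via central venous catheter predose to 240 h (some to 288 h). Amylin measured by sandwich ELISA; T½ = ln 2/λz from non-compartmental analysis of individual profiles.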

For `CC[C@H](C)[C@H](NC(=O)[C@@H]1CCCN1C(=O)CNC(=O)[C@H](Cc1ccccc1)NC(=O)[C@H](CC(N)=O)NC(=O)[C@H](CC(N)=O)NC(=O)[C@H](CO)NC(=O)[C@H](CO)NC(=O)[C@H](Cc1c[nH]cn1)NC(=O)[C@H](Cc1c[nH]cn1)NC(=O)[C@H](CC(C)C)NC(=O)[C@H](Cc1ccccc1)NC(=O)[C@H](CC(N)=O)NC(=O)[C@H](C)NC(=O)[C@H](CC(C)C)NC(=O)[C@H](CCCNC(=N)N)NC(=O)[C@H](CCC(N)=O)NC(=O)[C@@H](NC(=O)[C@H](C)NC(=O)[C@@H]1CSSC[C@H](NC(=O)[C@H](Cc2c[nH]cn2)NC(=O)[C@H](Cc2c[nH]cn2)NC(=O)[C@H](Cc2c[nH]cn2)NC(=O)CC[C@H](NC(=O)CCCCCCCCCCCCCCCCCCC(=O)O)C(=O)O)C(=O)N[C@@H](CC(N)=O)C(=O)N[C@@H]([C@@H](C)O)C(=O)N[C@@H](C)C(=O)N[C@@H]([C@@H](C)O)C(=O)N1)[C@@H](C)O)C(=O)N[C@@H](CC(C)C)C(=O)N1CCC[C@H]1C(=O)N1CCC[C@H]1C(=O)N[C@H](C(=O)N[C@@H](CC(N)=O)C(=O)N[C@H](C(=O)NCC(=O)N[C@@H](CO)C(=O)N[C@@H](CC(N)=O)C(=O)N[C@H](C(=O)N[C@@H](Cc1ccc(O)cc1)C(N)=O)[C@@H](C)O)C(C)C)[C@@H](C)O` [Example 39, N-alpha-[(S)-4-Carboxy-4-(19-carboxynonadecanoylamino)butyryl]-His-His-[His1,His17]-pramlintide] ({C20 diacid-γGlu}-HHHCNTATCATQRLANFLHHSSNNFGPILPPTNVGSNTY-NH2; disulfide 4-9), the “food intake over a period of 48 hours” value (food intake) was “effectively reducing food intake” and the half-life [1] was 60 h.
